Where a name gives a salt, the structure may show the parent alone.

T1 sequence (P29597 whole entry): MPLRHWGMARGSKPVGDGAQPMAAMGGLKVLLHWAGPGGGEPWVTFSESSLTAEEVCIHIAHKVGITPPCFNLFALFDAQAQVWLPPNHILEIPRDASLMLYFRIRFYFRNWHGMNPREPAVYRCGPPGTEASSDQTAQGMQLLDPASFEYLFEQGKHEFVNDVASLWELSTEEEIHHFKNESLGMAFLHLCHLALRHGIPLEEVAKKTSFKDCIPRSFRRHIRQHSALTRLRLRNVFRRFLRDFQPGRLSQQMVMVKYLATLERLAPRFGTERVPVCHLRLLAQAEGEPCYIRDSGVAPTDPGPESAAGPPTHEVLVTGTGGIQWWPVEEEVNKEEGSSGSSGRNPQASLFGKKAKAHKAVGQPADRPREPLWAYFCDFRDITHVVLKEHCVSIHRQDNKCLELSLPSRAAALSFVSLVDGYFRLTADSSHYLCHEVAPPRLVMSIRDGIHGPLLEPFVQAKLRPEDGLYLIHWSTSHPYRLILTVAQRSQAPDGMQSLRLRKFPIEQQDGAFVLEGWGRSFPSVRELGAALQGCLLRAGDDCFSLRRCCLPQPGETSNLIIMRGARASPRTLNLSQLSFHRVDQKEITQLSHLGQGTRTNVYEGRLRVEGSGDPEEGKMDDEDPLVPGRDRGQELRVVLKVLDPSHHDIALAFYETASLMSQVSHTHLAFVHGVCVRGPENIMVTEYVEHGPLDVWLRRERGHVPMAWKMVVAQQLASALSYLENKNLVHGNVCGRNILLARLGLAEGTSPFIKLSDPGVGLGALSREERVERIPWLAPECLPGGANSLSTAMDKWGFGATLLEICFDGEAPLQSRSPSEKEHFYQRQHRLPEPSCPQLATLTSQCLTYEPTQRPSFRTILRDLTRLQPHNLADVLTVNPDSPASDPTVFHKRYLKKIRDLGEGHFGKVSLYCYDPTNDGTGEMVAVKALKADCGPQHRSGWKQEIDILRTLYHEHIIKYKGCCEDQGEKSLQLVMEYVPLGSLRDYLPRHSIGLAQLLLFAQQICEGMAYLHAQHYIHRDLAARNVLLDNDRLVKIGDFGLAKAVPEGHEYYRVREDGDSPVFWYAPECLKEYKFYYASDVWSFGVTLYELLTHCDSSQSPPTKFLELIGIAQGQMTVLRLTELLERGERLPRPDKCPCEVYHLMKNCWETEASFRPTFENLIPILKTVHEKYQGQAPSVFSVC

The first experiment has as its target T1, Tyk2 (Homo sapiens, UniProt P29597).
T1 construct: purchased Invitrogen
In words: Tyk2 enzyme inhibition test (LANCE method). It counts as biochemical. To be noted: compound 1 μM; Tyk2 (Invitrogen), ULight-JAK1 substrate, ATP; well without enzyme = 100% inhibition; read-out: Tyk2 enzyme inhibitory activity (%, 1 μM). The method, then: Tyk2 enzyme inhibitory activity of test compounds was measured by LANCE method (PerkinElmer). First, a test compound diluted with assay buffer (50 mM HEPES (pH=7.5), […], 1 mM EGTA, 2 mM DTT, 0.01% Tween20, 0.01% BSA) was added to 384-well plate at 2 μL each. Then, a Tyk2 (Invitrogen) solution and a fluorescence-labeled peptide substrate (ULight-JAK1, PerkinElmer) solution diluted with assay buffer at 375 ng/mL and 300 nM, respectively were added at 2 μL each. Then, enzyme reaction was started by adding 2 μL each of ATP solution prepared with assay buffer at 30 μM. After the reaction at room temperature for 1 hr, Detection Buffer (PerkinElmer) prepared to be 20 mM EDTA, 4 nM europium-labeled anti-phosphotyrosine antibody (PerkinElmer) was added at 6 μL each. After standing at room temperature for 1 hr, fluorescence intensity (excitation wavelength 340 nm, fluorescence wavelength 665 nm, delay time 100 microsecond) was measured by a plate reader, Envision (PerkinElmer). The inhibitory activity of each compound was calculated as relative value where fluorescence intensity of a well without enzyme is considered as 100% inhibition.
Turning to `CC(C)(C(N)=O)n1cc(Nc2nccc(N3CC[C@@](C#N)(C4CC4)C3=O)n2)cn1` [Example 109, 2-(4-((4-((3S)-3-cyano-3-cyclopropyl-2-oxopyrrolidin-1-yl)pyrimidin-2-yl)amino)-1H-pyrazol-1-yl)-2-methylpropanamide hydrochloride], the inhibition at 1 µM came to 99%. As for `CNC(=O)Cn1cc(Nc2nccc(N3CC[C@@](C#N)(C(C)C)C3=O)n2)cn1` [Example 86, 2-(4-((4-((3S)-3-cyano-3-isopropyl-2-oxopyrrolidin-1-yl)pyrimidin-2-yl)amino)-1H-pyrazol-1-yl)-N-methylacetamide hydrochloride], the inhibition at 1 µM turned out to be 100%. On the same count and under the same terms, for `CCC1(CC)CCN(c2ccnc(Nc3ccccc3)n2)C1=O` [Example 15, 1-(2-anilinopyrimidin-4-yl)-3,3-diethylpyrrolidin-2-one] the value was 89%.

Regarding `CC(C)[C@]1(C#N)CCN(c2ccnc(Nc3cnn(CC(N)=O)c3)n2)C1=O` [Example 85, 2-(4-((4-((3S)-3-cyano-3-isopropyl-2-oxopyrrolidin-1-yl)pyrimidin-2-yl)amino)-1H-pyrazol-1-yl)acetamide hydrochloride], the inhibition at 1 µM was 100%. For `Cn1cc(Nc2nccc(N3CCCC3=O)n2)cn1` [Example 12, 1-(2-((1-methyl-H-pyrazol-4-yl)amino)pyrimidin-4-yl)pyrrolidin-2-one], the inhibition at 1 µM turned out to be 51%. On the same count and under the same terms, for `CCC1(CC)CCN(c2ccnc(Nc3cnn(C)c3)n2)C1=O` [Example 10, 3,3-diethyl-1-(2-((1-methyl-1H-pyrazol-4-yl)amino)pyrimidin-4-yl)pyrrolidin-2-one hydrochloride] the value was 97%; for `CCC1(C#N)CCN(c2ccnc(NCC3CC3)n2)C1=O` (centres unmarked) [Example 77, 1-(2-((cyclopropylmethyl)amino)pyrimidin-4-yl)-3-ethyl-2-oxopyrrolidine-3-carbonitrile], 22%; for `CC(C)[C@]1(C#N)CCN(c2ccnc(Nc3cnn(CC(=O)N(C)C)c3)n2)C1=O` [Example 87, 2-(4-((4-((3S)-3-cyano-3-isopropyl-2-oxopyrrolidin-1-yl)pyrimidin-2-yl)amino)-1H-pyrazol-1-yl)-N,N-dimethylacetamide hydrochloride], 100%. `CNC(=O)Cn1cc(Nc2nccc(N3CC[C@](C#N)(C4CC4)C3=O)n2)cn1` [Example 133, 2-(4-((4-((3R)-3-cyano-3-cyclopropyl-2-oxopyrrolidin-1-yl)pyrimidin-2-yl)amino)-1H-pyrazol-1-yl)-N-methylacetamide hydrochloride]: the inhibition at 1 µM came to 24%. On the same count and under the same terms, to `CC(C)(CO)n1cc(Nc2nccc(N3CC[C@@](C#N)(C4CC4)C3=O)n2)cn1` [Example 103, (3S)-3-cyclopropyl-1-(2-((1-(1-hydroxy-2-methylpropan-2-yl)-1H-pyrazol-4-yl)amino)pyrimidin-4-yl)-2-oxopyrrolidine-3-carbonitrile] belongs 100%; to `Cn1cc(Nc2nccc(N3CCCC(C)(C)C3=O)n2)cn1` [Example 101, 3,3-dimethyl-1-(2-((1-methyl-1H-pyrazol-4-yl)amino)pyrimidin-4-yl) piperidin-2-one hydrochloride], 88%; to `CCC1(CC)CC(C)N(c2ccnc(Nc3cnn(C)c3)n2)C1=O` (centres unmarked) [Example 33, 3,3-diethyl-5-methyl-1-(2-((1-methyl-1H-pyrazol-4-yl)amino)pyrimidin-4-yl)pyrrolidin-2-one hydrochloride], 97%. Same read-out and setting: for `CCC1(CC#N)CCN(c2ccnc(Nc3cnn(C)c3)n2)C1=O` (centres unmarked) [Example 31, (3-ethyl-1-(2-((1-methyl-1H-pyrazol-4-yl)amino)pyrimidin-4-yl)-2-oxopyrrolidin-3-yl)acetonitrile] the value was 98%.

For the compound `N#C[C@@]1(C2CC2)CCN(c2ccnc(Nc3cnn(C4(CO)CC4)c3)n2)C1=O` [Example 128, (3S)-3-cyclopropyl-1-(2-((1-(1-(hydroxymethyl)cyclopropyl)-1H-pyrazol-4-yl)amino)pyrimidin-4-yl)-2-oxopyrrolidine-3-carbonitrile], the inhibition at 1 µM was found to be 100%. Still for that read-out and setting: to `CC(C)[C@]1(C#N)CCN(c2ccnc(Nc3ccc(N4CCOCC4)cc3)n2)C1=O` [Example 7, (3S)-3-isopropyl-1-(2-((4-(morpholin-4-yl)phenyl)amino)pyrimidin-4-yl)-2-oxopyrrolidine-3-carbonitrile] belongs 100%; to `CCC1(C#N)CCN(c2ccnc(NCc3ccco3)n2)C1=O` (centres unmarked) [Example 72, 3-ethyl-1-(2-((2-furylmethyl)amino)pyrimidin-4-yl)-2-oxopyrrolidine-3carbonitrile], 20%; to `CCC1(C#N)CCN(c2ccnc(Nc3cnn(C)c3)n2)C1=O` (centres unmarked) [Example 1, 3-ethyl-1-(2-((1-methyl-1H-pyrazol-4-yl)amino)pyrimidin-4-yl)-2-oxopyrrolidine-3-carbonitrile], 99%. Still for that read-out and setting: for `Cn1cc(Nc2ncc(F)c(N3CCC(C)(C)C3=O)n2)cn1` [Example 29, 1-(5-fluoro-2-((1-methyl-1H-pyrazol-4-yl)amino)pyrimidin-4-yl)-3,3-dimethylpyrrolidin-2-one] the value was 91%; for `CNC(=O)Cn1cc(Nc2nccc(N3CC[C@@](C#N)(C4CC4)C3=O)n2)cn1` [Example 134, 2-(4-((4-((3S)-3-cyano-3-cyclopropyl-2-oxopyrrolidin-1-yl)pyrimidin-2-yl)amino)-1H-pyrazol-1-yl)-N-methylacetamide hydrochloride], 99%. The same measure, in the same setting: for `CC(C)[C@]1(C#N)CCN(c2ccnc(Nc3cnn(CCC(=O)N(C)C)c3)n2)C1=O` [Example 265, 3-(4-((4-((3S)-3-cyano-3-isopropyl-2-oxopyrrolidin-1-yl)pyrimidin-2-yl)amino)-1H-pyrazol-1-yl)-N,N-dimethylpropanamide] the value was 99%; for `CCC1(C#N)CCN(c2ccnc(NCc3ccc(C#N)cc3)n2)C1=O` (centres unmarked) [Example 61, 1-(2-((4-cyanobenzyl)amino)pyrimidin-4-yl)-3-ethyl-2-oxopyrrolidine-3-carbonitrile], 14%. `CC[C@]1(C#N)CCN(c2ccnc(Nc3ccc(N4CCOCC4)cc3)n2)C1=O` [Example 4, (3R)-3-ethyl-1-(2-((4-(morpholin-4-yl)phenyl)amino)pyrimidin-4-yl)-2-oxopyrrolidine-3-carbonitrile]: the inhibition at 1 µM was determined as 100%.

A further experiment relates to IL-23. In words: IL-23-induced IL-22 in rat auricle tissue. The class given is in vivo. The following applies: 10 mg/kg, q.d., oral, 30 min before intradermal mouse IL-23 into right auricle; IL-22 in auricle tissue by ELISA about 24 hr later; mean of n=6. On the procedure:
Recombinant mouse IL-23 (1 μg/20 μL/site) was intradermally administered into the right auricle of 7-8-week-old LEWEIS male rat. As control, phosphate buffered saline (PBS) which is a solvent was administered instead of IL-23. Then, a drug (the compound of Example 103) suspended in 0.5% methyl cellulose (MC) was orally administered 30 min before IL-23 administration, respectively. 0.5% MC was used as vehicle. The auricle tissues of 6 mm diameter were collected about 24 hr after IL-23 administration. Lysis buffer was added thereto, the tissues were crushed using beads, and centrifugalized, and the supernatant was collected. IL-22 in the tissues was measured using ELISA kit (R & D Systems). The result is shown below as a IL-23 inhibitory rate relative to vehicle. (mean of n=6)
`CC(C)(CO)n1cc(Nc2nccc(N3CC[C@@](C#N)(C4CC4)C3=O)n2)cn1` [Example 103, (3S)-3-cyclopropyl-1-(2-((1-(1-hydroxy-2-methylpropan-2-yl)-1H-pyrazol-4-yl)amino)pyrimidin-4-yl)-2-oxopyrrolidine-3-carbonitrile]: the “IL-23 inhibitory rate relative to vehicle” value is reported as 79%.

(Values after patent publication US9187453B2, “Heterocyclic compound” (Takeda Pharmaceutical Company Limited, priority 2012, dated 2015).)
